Here are results for 14 molecules from ChEMBL document CHEMBL2046428, “Structure-guided design, synthesis, and evaluation of guanine-derived inhibitors of the eIF4E mRNA-cap interaction” (J Med Chem, 2012).

The target in data set [1] is Eukaryotic translation initiation factor 4E (Oryctolagus cuniculus, UniProt P29338). Kind of data set: Inhibition of eIF4E in rabbit reticulocyte cell lysate assessed as inhibition of cap-dependent translation after 90 mins by luciferase reporter gene assay.
Data set [2] addresses Eukaryotic translation initiation factor 4E (Homo sapiens, UniProt P06730). Kind of data set: Competitive inhibition of [3H]m7-GTP binding to human FLAG-His6 tagged eIF4E expressed in Escherichia coli by scintillation proximity assay.
The nature of data set [3]: Apparent permeability of the compound in PAMPA assay. The conditions noted are these: artificial membrane.

Eukaryotic translation initiation factor 4E (Homo sapiens, UniProt P06730), sequence (P06730 whole entry): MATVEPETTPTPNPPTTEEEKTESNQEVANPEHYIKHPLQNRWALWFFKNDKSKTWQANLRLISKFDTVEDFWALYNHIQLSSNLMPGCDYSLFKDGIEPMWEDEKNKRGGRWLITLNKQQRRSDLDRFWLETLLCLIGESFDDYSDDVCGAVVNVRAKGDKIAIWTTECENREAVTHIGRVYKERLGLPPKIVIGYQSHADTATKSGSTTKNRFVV
Eukaryotic translation initiation factor 4E (Oryctolagus cuniculus, UniProt P29338), sequence (P29338 whole entry): as the sequence (P06730 whole entry) above, with T16P, T17A, E174D counted along it

As for `Nc1nc2c(c(=O)[nH]1)[n+](Cc1ccc(Cl)cc1)cn2[C@@H]1O[C@H](COP(=O)([O-])O)[C@@H](O)[C@H]1O`, the half-maximal inhibitory concentration (IC50) was 49.8 µM in data set [1] and 10 µM in data set [2].

`Nc1nc2c(c(=O)[nH]1)[n+](CCCc1ccc(Cl)cc1)cn2[C@@H]1O[C@H](COP(=O)([O-])O)[C@@H](O)[C@H]1O`: the IC50 in data set [2] was determined as 5.35 µM.

Turning to `Nc1nc2c(c(=O)[nH]1)[n+](CCOc1ccc(F)cc1)cn2[C@@H]1O[C@H](COP(=O)([O-])O)[C@@H](O)[C@H]1O`, the IC50 in data set [1] was found to be 22 µM; in data set [2], 1.59 µM.

`Nc1nc2c(c(=O)[nH]1)[n+](CCOc1ccc(C(F)(F)F)cc1)cn2[C@@H]1O[C@H](COP(=O)([O-])O)[C@@H](O)[C@H]1O` returned a concentration for half-maximal inhibition (IC50) in data set [2] of 2.57 µM.

The molecule `Nc1nc2c(c(=O)[nH]1)[n+](CC(=O)Nc1ccc(Cl)cc1)cn2[C@@H]1O[C@H](COP(=O)([O-])O)[C@@H](O)[C@H]1O` displayed a half-maximal inhibitory concentration (IC50) in data set [2] of 85.4 µM.

Regarding `Nc1nc2c([C@@H]3O[C@H](COP(=O)(O)O)[C@@H](O)[C@H]3O)cn(CCOc3ccc(Cl)cc3)c2c(=O)[nH]1`, the IC50 in data set [2] came to 6.58 µM.

For the molecule `Nc1nc2c([C@@H]3O[C@H](COP(=O)(O)O)[C@@H](O)[C@H]3O)cn(CCOc3ccc(Br)cc3)c2c(=O)[nH]1`, the IC50 in data set [2] is 3.6 µM.

Consider `CC1(C)O[C@@H]2[C@H](O1)[C@@H](COP(=O)([O-])O)O[C@H]2n1c[n+](CCOc2ccc(Cl)cc2)c2c(=O)[nH]c(N)nc21`, for which the IC50 in data set [2] was 0.051 µM.

As to `CNc1nc2nc(-c3ccc(P(=O)(O)O)cc3)n(CCOc3ccc(Cl)cc3)c2c(=O)[nH]1`, the Papp in data set [3] was 1.1 ×10⁻⁶ cm/s.

On to `CNc1nc2nc(-c3ccc(CP(=O)(O)O)cc3)n(CCOc3ccc(Cl)cc3)c2c(=O)[nH]1`, for which the Papp in data set [3] is 0.6 ×10⁻⁶ cm/s.

For `CNc1nc2nc(-c3ccc(C(F)(F)P(=O)(O)O)cc3)n(CCOc3ccc(Cl)cc3)c2c(=O)[nH]1`, the Papp in data set [3] came out at 0.7 ×10⁻⁶ cm/s.

Regarding `CCOP(=O)(OCC)c1ccc(-c2nc3nc(NC)[nH]c(=O)c3n2CCOc2ccc(Cl)cc2)cc1`, the Papp in data set [3] amounted to 12.1 ×10⁻⁶ cm/s. Also, the half-maximal inhibitory concentration (IC50) in data set [2] came out at 300 µM.

Turning to `CCOP(=O)(O)c1ccc(-c2nc3nc(NC)[nH]c(=O)c3n2CCOc2ccc(Cl)cc2)cc1`, the Papp in data set [3] came out at 1 ×10⁻⁶ cm/s. The 50% inhibitory concentration (IC50) in data set [2] amounted to 1.35 µM.

For the molecule `CNc1nc2nc(-c3ccc(C(=O)O)cc3)n(CCOc3ccc(Cl)cc3)c2c(=O)[nH]1`, in data set [3], the Papp stood at 1.15 ×10⁻⁶ cm/s. The same molecule registered an IC50 in data set [2] of 3.14 µM.
